Measured values from US11332438B2, “Creatine prodrugs, compositions and methods of use thereof” (Ultragenyx Pharmaceutical Inc., priority 2017, dated 2022).

Columns and labels:
[1] = tested on: Phenocell CrT deficient neurons (iPSC-derived human neurons); test: Creatine prodrug uptake and d3-creatine release in Phenocell CrT deficient neurons (Table 4B); format: cell-based; settings: 2 hours
Experimental: Human neurons were obtained by differentiation of iPSC-derived neural stem cells for 14 days. The iPSCs were obtained from Phenocell Corporation. Neurons were cultured and differentiated to Day 10 and then frozen in liquid nitrogen. Neurons were thawed and replated at 1×10^6 per well of viable cells on poly-ornithine/laminin coated plates in 2 ml medium per well. Differentiation in complete Neurol medium with 2 ng/ml FGF2 was carried out for 4 additional days with a complete medium change (90% of medium) on Day 12. Activin A (20 ng/ml final conc.) was spiked into the cultures on Day 11 and Day 13. […] In parallel, compounds were incubated in medium alone to assess chemical stability of parent prodrug and metabolites. At the end of the 2 hour incubation, supernatants were collected and frozen at −80 C. Neurons in 6 well plates were washed gently 3× with HBSS and frozen at −80° C. Cell lysates were obtained by addition of 130 μl/well 10 mM Tris pH 7.4 with complete Mini protease inhibitors and scraping of wells. Plates were kept on ice during processing. Lysates were homogenized by hand briefly with a green pestle in 1.5 ml centrifuge tubes and then vortexed at high speed for 5 seconds. Lysates were centrifuged at 13,000 g, 10 minutes, 4 C and supernatants (cytosol fraction) were transferred in a new tube. A crash solution constituted of 80% acetonitrile and 20% water with bucetin, d5-Cr (internal standard) was added at 4:1 volume to volume to 50 ul of all samples for a total volume of 250 μL. Then plate was spun at 4000 rpm, 10 minutes, […] Samples were transferred to a new plate and frozen at −80 C prior to analysis by LC-MS/MS (Table 4B).

[2] = d3-Creatine and d3-creatinine concentration in CrT KO mice brain after IV bolus dose (FIGS. 3 and 4, Table 6); format: in vivo; settings: CrT KO mice, 10 mg/kg IV, FIG. 4
Experimental: The brain concentrations of d3-creatine and d3-creatinine was measured in CrT KO mice following 10 mg/kg single dose IV bolus dose of compound 14 and 15 (FIGS. 3 and 4). As shown by FIG. 3, brain d3-creatine concentration was higher following administration of compound 15 compared to compound 14. […] Without bound to any theory, the macrocyclic compound 15 prodrug reduces d3-creatine cyclization to d3-creatinine when compared to linear compound 14 prodrug.
The concentration of d3-creatine in CrT KO mice brain were also measured for other compounds disclosed in the present application as shown in Table 6. The concentrations of d3-creatine, d3-creatinine and creatine prodrugs are measured by LC-MS/MS. The brain sample is homogenized with 4× (weight to volume) of KPI 100 mM buffer containing anti-proteases and anti-phosphatases (if needed). 50 μl of brain homogenate is then de-proteinized using 4× volume/volume of a solution containing 80% acetonitrile and 20% water with bucetin, d5-Cr (internal standard). The plate is then spun at 4000 rpm, 10 minutes, 4° C. and samples are transferred to a new plate for bioanalysis. Each analyte in each sample was quantitated against a curve in matching biomatrix using an authentic standard.

[3] = Liver microsome stability, mouse; format: in vitro ADME; settings: liver microsomes, pH 7.4, Table 2C, read-out: Microsome Stability Mouse t1/2
How it was run: (§1)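 Test compound incubated with mouse or human liver microsomes and NADPH in 0.1 M potassium phosphate, 1.0 mM EDTA, pH 7.4, with a 60-min no-NADPH control. Samples quenched with ACN containing internal standard at 0, 5, 10, 20, 30 and 60 min, then analysed by LC/MS.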

[4] = Liver microsome stability, human; format: in vitro ADME; settings: liver microsomes, pH 7.4, Table 2C, read-out: Microsome Stability Human t1/2
How it was run: as §1

[5] = Chemical stability in simulated gastric fluid (SGF) without pepsin; format: physicochemical; settings: 50 μM prodrug
How it was run: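 Incubations used 50 μM compound at 37 °C in phosphate buffered saline, fasted simulated intestinal fluid without pancreatin, or fasted simulated gastric fluid without pepsin.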

[6] = Single-dose study in CrT KO mice: creatine and creatinine in plasma and brain over 8 h (FIG. 1); format: in vivo
Experimental: FIG. 1 is a graph of the data from a single-dose study comparing d3-creatine and d3-creatinine levels in the plasma and brain of CrT KO mice treated with compound 15 and measured over 8 h. Cr=d3-creatine; CRN=d3-creatinine.
The plasma and brain concentrations of creatine and creatinine was measured in CrT KO mice upon treatment with compound 15 (FIG. 1). […] The ratio of [creatine]Brain.[creatine]Plasma can be an useful parameter for a successful clinical development of creatine prodrugs for treating CTD and related conditions.

[7] = Repeat dosing study, d3-creatine levels in non-human primate (NHP) brain (FIG. 2, Table 7); format: in vivo; settings: 7 infusions q.d., all brain regions tested
Experimental: FIG. 2 is a graph of the data from a multi-dose study comparing d3-creatine and d3-creatinine levels in the brain of non-human primates, measured after a total of 7 infusions of compound 14 administered q.d. (once daily). Cr=d3-creatine; CRN=d3-creatinine.
Non-human primate (NHP) brains were dosed with Compound 8 (120 mg/kg) and Compound 14 (18 mg/kg) over a seven day period (i.v. infusion provide q.d.).

[8] = In vivo IV dosing in CrT KO mice: prodrug, d3-Cr and d3-Crn in brain (Table 5); settings: IV 10 mg/kg, CrT KO mouse brain; BQL prodrug = 41.2 ng/mL
Experimental: A creatine prodrug is administered as an intravenous bolus injection to groups of three to six adult male CD1 mice at an appropriate creatine prodrug dose equivalent per kg body weight. Animals are conscious at the time of the experiment. Blood samples (0.3 mL) are obtained via a jugular vein cannula at intervals over 8 hours following IV dosing. Blood is processed into plasma, then the plasmais immediately frozen at −80° C. until analyzed by LC-MS/MS. Samples may also be taken form the CSF or other appropriate biological fluid. Brains were collected and flash frozen immediately in liquid nitrogen. Brains were homogenized in 100 mM KPI buffer with a cocktail of anti-proteases on the same day as the sample preparation required for LC-MS/MS analysis.
Several prodrugs with either free COOH group and ester linkage and macrocycles were selected for IV dosing in animal study to assess PK and d3-Cr release in brain in vivo. Prodrugs were IV dosed in CrT KO mice at 10, 15, or 25 mg/kg in animal studies. Mouse brain homogenates (MBH) were prepared from brains collected from mice after dosing. Levels of prodrug, d3-Cr and d3-Crn were quantified in brain and expressed in brain concentration (for macrocycle prodrugs) or AUC (for linear prodrugs) over time. Very few prodrugs were detected in MBH.

Prodrug concentration in the cell cytosol ([1]; Study No. 2, 100 μM)	d3-Creatine concentration in the cell cytosol ([1]; Study No. 2, 100 μM)	Prodrug concentration in the cell cytosol ([1]; Study No. 2, 500 μM)	brain concentration of d3-creatinine, compound 14 versus compound 15 [2]	half-life at 10 μM [3]	half-life at 10 μM [4]	Chemical Stability SGF, no enzyme % T0 at 2 hours at 37 °C. ([5]; Table 2C)	creatine levels compared to creatinine (CRN) levels [6]	brain creatine (Cr) concentration compared to plasma ([6]; measured over 8 h)	d3-creatine (d3-Cr) levels in NHP brain on repeat administration (in words) [7]	Chemical Stability SGF, no enzyme % T0 at 2 hours at 37 °C. ([5]; Table 2A)	AUClast prodrug in the brain [8]	SMILES
BLOQ	BLOQ	BLOQ	not significantly different	< 5 min	< 5 min	97%	higher than creatinine (CRN) levels	higher than the concentration in plasma	–	–	–	Cl.[2H]C([2H])([2H])N1CC(=O)OCCCCCCCCCCC(=O)NC1=N [Compound 15, 5-imino-4-trideuteriomethyl-1-oxa-4,6-diazacycloheptadecane-2,7-dione Hydrochloride]
–	–	–	not significantly different	–	–	–	–	–	dramatically increases	80%	BQL	Cl.[2H]C([2H])([2H])N(CC(=O)OCCCCCCC)C(=N)NC(=O)CCCCCC [Compound 14]
